Test results reported in patent US20060240098A1, “Formulations for hyperforin-enriched hypericum fractions” (Aphios Corporation, priority 2004, published 2006).
Counter-ions that a name gives are not always drawn.

Biological target: serotonin reuptake (Rattus norvegicus, UniProt P31652)
Assay: in vitro serotonin reuptake inhibition assay (Paracelsian)
Assay type: biochemical
Procedure: The bioassay was performed in quadruplicate by Paracelsian, Inc., Ithaca, N.Y. and were all in compliance with our standard operating protocols, having a standard deviation less than ±5%.

serotonin reuptake, sequence (P31652 whole entry): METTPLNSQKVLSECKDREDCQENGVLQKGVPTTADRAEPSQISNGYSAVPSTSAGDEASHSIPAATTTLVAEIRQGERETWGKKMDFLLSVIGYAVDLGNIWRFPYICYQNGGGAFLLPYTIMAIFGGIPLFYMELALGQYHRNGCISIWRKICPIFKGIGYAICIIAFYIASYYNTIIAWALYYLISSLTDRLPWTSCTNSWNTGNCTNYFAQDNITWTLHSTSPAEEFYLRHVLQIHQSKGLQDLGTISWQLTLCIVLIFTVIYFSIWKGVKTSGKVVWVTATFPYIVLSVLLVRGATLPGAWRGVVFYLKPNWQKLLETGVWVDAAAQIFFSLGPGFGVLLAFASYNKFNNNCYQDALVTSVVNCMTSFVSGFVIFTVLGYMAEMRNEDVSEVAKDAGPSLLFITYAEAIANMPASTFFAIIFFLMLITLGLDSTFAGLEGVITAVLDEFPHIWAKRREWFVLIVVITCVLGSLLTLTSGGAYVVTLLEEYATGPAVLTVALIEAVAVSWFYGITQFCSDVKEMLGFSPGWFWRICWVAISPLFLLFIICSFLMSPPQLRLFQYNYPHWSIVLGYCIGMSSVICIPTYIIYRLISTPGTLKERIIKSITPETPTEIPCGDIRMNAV

Row | Compound | Serotonin Reuptake Inhibition (%) (sample weight 2 μg) | Serotonin Reuptake Inhibition (%) (sample weight 65 ng)
1 | hyperforin [Hyperforin (Aphios)] | 80.3 | 
2 | Cc1cc(O)c2c(=O)c3c(O)cc(O)c4c5c(O)cc(O)c6c(=O)c7c(O)cc(C)c8c1c2c(c34)c(c78)c65 [Hypericin (Sigma), hypericin] | 0.0 | 
3 | CN(C)CCCN1c2ccccc2CCc2ccccc21 [Imipramine (Sigma), imipramine hydrochloride] |  | 38.3
